Assay results as given in patent EP1082099B1, “SURFACTANT FOR USE IN EXTERNAL PREPARATIONS FOR SKIN AND EXTERNAL PREPARATION FOR SKIN CONTAINING THE SAME” (Showa Denko K K, priority 1998, dated 1999).

What was measured:
[1] = Skin penetration test of methylparaben through hairless mouse skin (two-chamber); assay type: in vitro ADME; details: Example 2; donor side phosphate buffer pH 7 with stated composition; after 5 hours
Description: One (donor side) of two chambers separated by a hairless mouse skin was filled with a phosphate buffer (pH 7) having dissolved therein a substance having the composition described in Table 3 and the other (receiver side) was filled with a phosphate buffer solution (pH 7). After 5 hours, the concentration of methylparaben on the receiver side was measured. […] As will be apparent from the results, surfactin suppressed the skin penetration of skin-irritating substances.
(§1) One (donor side) of two chambers separated by a hairless mouse skin was filled with a cosmetic having the composition described in Table 6 and the other (receiver side) was filled with a phosphate buffer solution (pH 7). After 5 hours, the concentration of methylparaben on the receiver side was measured.
as §1, with “14” for “6”

[2] = system: three-dimensional skin model; assay: Skin irritation test: MTT cytotoxicity on three-dimensional cultured skin model; assay type: cell-based; details: test substance in PBS pH 7, 1 hour exposure, 16 hours incubation, read from graph
Description: Using a three-dimensional skin model (trade name: Three-dimensional cultured skin model, manufactured by Gunze), skin irritation tests were performed. […] The test substances were adjusted with PBS (Phosphate Buffer Saline, pH 7) so that they were in various concentrations. To the thus-adjusted test substances was exposed the skin model for 1 hour. Thereafter, the test substances were washed and incubated for 16 hours in a medium attached to the above-described three-dimensional skin model. After the incubation, a solution of MTT (3-(4,5-dimethylthiazol-2-yl)-2,5-diphenyltetrazolium bromide) was added and pigments were extracted with isopropanol rendered acidic with hydrochloric acid, followed by measurement of absorbance at a wavelength of 570 nm. […] This value was called B. The MTT solution was added to PBS and extraction was performed similarly. Absorbance of the extract measured at a wavelength of 570 nm was named C. From these values was calculated cytotoxicity. Calculation was made according to the following equation. Cytotoxicity (%) = (1-(A-c)/(B-C)) x 100 [formula]
Plotting the concentration of a test substance on the axis of abscissa and cytotoxicity on the axis of ordinate, a graph was obtained, from which the concentration of a test compound at 50% cytotoxicity was read.

Concentration of methylparaben of receiver [1] [ppm]	Compound	Concentration of surfactant at 50% cytotoxicity [2] [%]
5.7	COC(=O)c1ccc(O)cc1 [0.1% Methylparaben, Methylparaben]	–
–	CCCCCCCCCCCCOS(=O)(=O)[O-].[Na+] [SDS, sodium dodecylsulfate, reference compound]	0.2
